Assay results reported in patent US11751567B2, “Steroidal piperidone derivative, synthesis method, and use thereof” (NORTHWEST A&F UNIVERSITY, priority 2021, dated 2023).
In brackets after ≈: the same amount, converted by molar mass.

Assays:
Format in all cases: in vivo
[1] = system: wheat aphids; assay: slide-dip mortality test on aphids (wheat aphids); conditions: 24 h, read-out: Corrected mortality (%) Wheat aphid
Experimental: (§1) Inhibitory activities of the steroidal piperidone derivatives listed in Tables 1 and 2 against Myzus persicae, Aphis citricola, Brevicoryne brassicae, and wheat aphids were determined through slide-dip method. Specific process: A specified amount of a compound to be tested was accurately weighed and dissolved with acetone as a solvent, and solutions with concentrations of 50 μg/mL and 75 μg/mL were each prepared with a 0.1% Tween-80 aqueous solution, allowed to stand at room temperature for 0.5 h until the sample was completely dissolved, and stored for later use. Then, adult aphids were fixed with double-sided tape on slides with a small brush. One end of the slide with the aphids was immersed in the test solutions for 5 seconds. The excess liquid was absorbed with absorbent paper, and the mortality rates were calculated 24 h after treatment. Acetamiprid was adopted as a positive control, and a 0.1% Tween-80 aqueous solution was adopted as a negative control. and the results are shown in Table 1.

[2] = system: Aphis citricola; assay: slide-dip mortality and LC50 test on aphids (Aphis citricola); conditions: for mortality at 50 µg/mL / mortality at 75 µg/mL: 24 h, read-out: Corrected mortality (%) Aphis citricola; for LC50: read-out: LC50 of inhibitory activity against Aphis citricola
Experimental: as §1

[3] = system: Tetranychus truncatus; assay: slide dipping mortality test on mites; conditions: slide dipping, process as for aphids, read-out: Corrected mortality (%) Tetranychus truncatus; for mortality at 50 µg/mL: 50 μg/mL; for mortality at 75 µg/mL: 75 μg/mL
Experimental: as §1
The inhibitory activities of the steroidal piperidone derivatives listed in Table 3 on Tetranychus truncatus were tested through slide dipping.

[4] = system: Brevicoryne brassicae; assay: slide-dip mortality test on aphids (Brevicoryne brassicae); conditions: 24 h, read-out: Corrected mortality (%) Brevicoryne brassicae
Experimental: as §1

[5] = system: rice planthoppers; assay: foliar spray test against rice planthoppers; conditions: 72 h, read-out: Corrected mortality (%) rice planthoppers
Experimental: (§2) The toxic activities of the steroidal piperidone derivatives listed in Table 4 against B. tabaci were tested by a foliar spray method. Specific process: A specified amount of a compound to be tested was accurately weighed and dissolved in acetone, and solutions with concentrations of 50 μg/mL and 75 μg/mL were each prepared with a 0.1% of Tween 80 aqueous solution and stored for later use. The pesticide solution was sprayed on the back side of a cucumber leaf, the cucumber leaf was naturally dried, and B. tabaci to be tested were placed on the cucumber leaf. Thiamethoxam was used as a positive control, and acetone was used as a negative control. Several deaths were observed after 7 d of treatment, and the corrected mortality was calculated.
The toxic activities of the steroidal piperidone derivatives listed in Table 5 against rice planthoppers were tested by a foliar spray method. Imidacloprid was used as a positive control, and acetone was used as a negative control. Several deaths were observed after 3 d of treatment, and the corrected mortality was calculated.

[6] = system: Bemisia tabaci; assay: foliar spray test on cucumber leaf against B. tabaci; conditions: 168 h, read-out: Corrected mortality (%) B. tabaci
Experimental: as §2

[7] = system: Myzus persicae; assay: slide-dip mortality test on aphids (Myzus persicae); conditions: 24 h, read-out: Corrected mortality (%) Myzus persicae
Experimental: as §1

SMILES | mortality at 50 µg/mL [1] | mortality at 75 µg/mL [1] | mortality at 50 µg/mL [2] | mortality at 75 µg/mL [2] | mortality at 50 µg/mL [3] | mortality at 75 µg/mL [3] | mortality at 50 µg/mL [4] | mortality at 75 µg/mL [4] | mortality at 50 µg/mL [5] | mortality at 75 µg/mL [5] | mortality at 50 µg/mL [6] | mortality at 75 µg/mL [6] | mortality at 50 µg/mL [7] | mortality at 75 µg/mL [7] | LC50 [2]
Cc1cccc(C(=O)N2C(=O)CC[C@H]3[C@@H]4CC=C5C[C@@H](O)CC[C@]5(C)[C@H]4CC[C@@]32C)c1 [Compound (2)-8] | 54.9% | 73.3% | 48.3% | 70.5% | 30.3% | 54.4% | 51.7% | 70.1% | 41.9% | 52.4% | 31.8% | 56.3% | 43.2% | 69.7% | 
Cc1ccc(C(=O)N2C(=O)CC[C@H]3[C@@H]4CC=C5C[C@@H](O)CC[C@]5(C)[C@H]4CC[C@@]32C)cc1 [Compound (2)-9] | 85.5% | 100% | 88.8% | 100% | 55.2% | 77.5% | 78.7% | 100% | 59.6% | 66.2% | 63.4% | 75.9% | 80.7% | 100% | 14.2 µg/mL (≈ 33.7 µM)
C[C@]12CC[C@H](O)CC1=CC[C@@H]1[C@@H]2CC[C@@]2(C)[C@H]1CCC(=O)N2C(=O)c1ccc(C(F)(F)F)cc1 [Compound (2)-12] | 65% | 84.3% | 60.7% | 83% | 33.8% | 55.5% | 61.8% | 82.8% | 54% | 63% | 47.5% | 58.6% | 59.1% | 79.8% | 21.9 µg/mL (≈ 46.1 µM)
